Test results as given in PubChem BioAssay (NCI).
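A five-concentration, 48-hour dose response in 96-well plates underlies each endpoint, interpolated linearly between surrounding concentrations. Abbreviation: GI50, concentration required for 50% inhibition of growth. TGI: concentration producing complete growth inhibition.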

Key:
Experiment in all cases: inhibition of tumour cell growth, NCI panel, 48 h
[1] = test system: NCI-H226 lung
[2] = test system: MDA-MB-435
[3] = test system: CAKI-1 renal
[4] = test system: A549 NSCLC
[5] = test system: KM12 colon
[6] = test system: OVCAR-3 ovarian
[7] = test system: DU-145 prostate
[8] = test system: SK-MEL-5 melanoma
[9] = test system: SK-OV-3 ovarian
[10] = test system: NCI-H522 lung
[11] = test system: SW-620 colon
[12] = test system: MOLT-4 leukemia
[13] = test system: NCI/ADR-RES ovarian
[14] = test system: HCT-116 colon
[15] = test system: OVCAR-5 ovarian
[16] = test system: U251 CNS
[17] = test system: UO-31 renal
[18] = test system: EKVX NSCLC
[19] = test system: HCT-15 colon
[20] = test system: NCI-H23 lung
[21] = test system: A498 renal
[22] = test system: NCI-H460 lung
[23] = test system: COLO 205 colon
[24] = test system: OVCAR-4 ovarian
[25] = test system: K-562 leukemia
[26] = test system: SF-295 CNS
[27] = test system: HOP-62 NSCLC
[28] = test system: HCC-2998 colon
[29] = test system: OVCAR-8 ovarian
[30] = test system: RXF 393 renal
[31] = test system: SNB-19 CNS
[32] = test system: LOX IMVI melanoma
[33] = test system: 786-0 renal
[34] = test system: TK-10 renal
[35] = test system: SF-539 CNS
[36] = test system: HT29 colon
[37] = test system: UACC-62 melanoma
[38] = test system: SK-MEL-28 melanoma
[39] = test system: PC-3 prostate
[40] = test system: RPMI-8226 leukemia
[41] = test system: SN12C renal
[42] = test system: HL-60(TB) leukemia
[43] = test system: SK-MEL-2 melanoma
[44] = test system: MDA-MB-231 breast
[45] = test system: HS 578T breast
[46] = test system: BT-549 breast
[47] = test system: HOP-92 NSCLC
[48] = test system: UACC-257 melanoma
[49] = test system: MALME-3M melanoma
[50] = test system: MCF7 breast
[51] = test system: ACHN renal
[52] = test system: T-47D breast
[53] = test system: CCRF-CEM leukemia
[54] = test system: SNB-75 CNS
[55] = test system: M14 melanoma
[56] = test system: SF-268 CNS
[57] = test system: IGROV1 ovarian

COC(=O)[C@@]1(Cc2ccccc2)[C@H]2c3cc(C(=O)N4CCCC4)n(Cc4ccc(OC)c(OC)c4)c3C[C@H]2CN1C(=O)c1ccccc1
GI50 [1]: 9.78 µM
TGI [1]: 19.3 µM
GI50 [2]: 11.7 µM
TGI [2]: 32.8 µM
GI50 [3]: 14 µM
TGI [3]: > 50 µM
GI50 [4]: 13.7 µM
TGI [4]: 46.2 µM
GI50 [5]: 9.44 µM
TGI [5]: 18.2 µM
GI50 [6]: 9.03 µM
TGI [6]: 21 µM
GI50 [7]: 15 µM
TGI [7]: > 50 µM
GI50 [8]: 7.71 µM
TGI [8]: 14.4 µM
GI50 [9]: 18.9 µM
TGI [9]: > 50 µM
GI50 [10]: 8.73 µM
TGI [10]: 19.6 µM
GI50 [11]: 6.92 µM
TGI [11]: 13.4 µM
GI50 [12]: 7.94 µM
TGI [12]: 32.8 µM
GI50 [13]: 11.4 µM
TGI [13]: 35.4 µM
GI50 [14]: 7.28 µM
TGI [14]: 13.8 µM
GI50 [15]: 9.19 µM
TGI [15]: 21.8 µM
GI50 [16]: 13 µM
TGI [16]: 40.7 µM
GI50 [17]: 8.5 µM
TGI [17]: 17.3 µM
GI50 [18]: 9.84 µM
TGI [18]: 21.2 µM
GI50 [19]: 7.77 µM
TGI [19]: 14.5 µM
GI50 [20]: 11.6 µM
TGI [20]: 36.1 µM
GI50 [21]: 10.4 µM
TGI [21]: 19.2 µM
GI50 [22]: 9.12 µM
TGI [22]: 18.9 µM
GI50 [23]: 5.83 µM
TGI [23]: 12.4 µM
GI50 [24]: 16.4 µM
TGI [24]: > 50 µM
GI50 [25]: 9.27 µM
TGI [25]: 37.3 µM
GI50 [26]: 12.7 µM
TGI [26]: 34.4 µM
GI50 [27]: 8.34 µM
TGI [27]: 17.8 µM
GI50 [28]: 8.86 µM
TGI [28]: 15.8 µM
GI50 [29]: 11.8 µM
TGI [29]: 34.1 µM
GI50 [30]: 5.89 µM
TGI [30]: 12.8 µM
GI50 [31]: 17.4 µM
TGI [31]: > 50 µM
GI50 [32]: 9.12 µM
TGI [32]: 16.8 µM
GI50 [33]: 13.7 µM
TGI [33]: > 50 µM
GI50 [34]: 16 µM
TGI [34]: 43.9 µM
GI50 [35]: 9.73 µM
TGI [35]: 18.1 µM
GI50 [36]: 9.12 µM
TGI [36]: 25 µM
GI50 [37]: 7.49 µM
TGI [37]: 15.8 µM
GI50 [38]: 10.1 µM
TGI [38]: 21.7 µM
GI50 [39]: 22.6 µM
TGI [39]: > 50 µM
GI50 [40]: 10.8 µM
TGI [40]: 23.5 µM
GI50 [41]: 9.96 µM
TGI [41]: 24.8 µM
GI50 [42]: 8.96 µM
TGI [42]: 24.8 µM
GI50 [43]: 8.76 µM
TGI [43]: 18.7 µM
GI50 [44]: 8.17 µM
TGI [44]: 21.4 µM
GI50 [45]: 6.56 µM
TGI [45]: 19.4 µM
GI50 [46]: 8.46 µM
TGI [46]: 16.1 µM
GI50 [47]: 13.3 µM
TGI [47]: 28 µM
GI50 [48]: 7.72 µM
TGI [48]: 15.2 µM
GI50 [49]: 10.4 µM
TGI [49]: 21 µM
GI50 [50]: 13.8 µM
TGI [50]: 44.8 µM
GI50 [51]: 17.8 µM
TGI [51]: > 50 µM
GI50 [52]: 9.55 µM
TGI [52]: 32.1 µM
GI50 [53]: 16.4 µM
TGI [53]: > 50 µM
GI50 [54]: 17.4 µM
TGI [54]: > 50 µM
GI50 [55]: 11.5 µM
TGI [55]: 25.7 µM
GI50 [56]: 13.3 µM
TGI [56]: > 50 µM

Cc1cccc(-c2nn3c(c2-c2ccnc4ccc(C(N)=O)cc24)CCC3)n1
GI50 [1]: > 100 µM
TGI [1]: > 100 µM
GI50 [2]: > 91.4 µM
TGI [2]: > 100 µM
GI50 [3]: > 100 µM
TGI [3]: > 100 µM
GI50 [4]: > 100 µM
TGI [4]: > 100 µM
GI50 [5]: > 100 µM
TGI [5]: > 100 µM
GI50 [6]: > 100 µM
TGI [6]: > 100 µM
GI50 [7]: > 100 µM
TGI [7]: > 100 µM
GI50 [8]: > 100 µM
TGI [8]: > 100 µM
GI50 [9]: > 100 µM
TGI [9]: > 100 µM
GI50 [10]: > 100 µM
TGI [10]: > 100 µM
GI50 [11]: > 100 µM
TGI [11]: > 100 µM
GI50 [12]: > 100 µM
TGI [12]: > 100 µM
GI50 [13]: > 100 µM
TGI [13]: > 100 µM
GI50 [14]: > 100 µM
TGI [14]: > 100 µM
GI50 [15]: > 100 µM
TGI [15]: > 100 µM
GI50 [16]: > 100 µM
TGI [16]: > 100 µM
GI50 [17]: > 100 µM
TGI [17]: > 100 µM
GI50 [18]: > 100 µM
TGI [18]: > 100 µM
GI50 [19]: > 100 µM
TGI [19]: > 100 µM
GI50 [20]: > 100 µM
TGI [20]: > 100 µM
GI50 [21]: 97.5 µM
TGI [21]: > 100 µM
GI50 [22]: > 100 µM
TGI [22]: > 100 µM
GI50 [23]: > 100 µM
TGI [23]: > 100 µM
GI50 [24]: > 100 µM
TGI [24]: > 100 µM
GI50 [25]: > 100 µM
TGI [25]: > 100 µM
GI50 [26]: > 100 µM
TGI [26]: > 100 µM
GI50 [27]: > 100 µM
TGI [27]: > 100 µM
GI50 [28]: > 100 µM
TGI [28]: > 100 µM
GI50 [29]: > 100 µM
TGI [29]: > 100 µM
GI50 [30]: > 100 µM
TGI [30]: > 100 µM
GI50 [31]: > 100 µM
TGI [31]: > 100 µM
GI50 [32]: > 100 µM
TGI [32]: > 100 µM
GI50 [33]: > 100 µM
TGI [33]: > 100 µM
GI50 [34]: > 100 µM
TGI [34]: > 100 µM
GI50 [35]: > 100 µM
TGI [35]: > 100 µM
GI50 [36]: 52.5 µM
TGI [36]: > 100 µM
GI50 [37]: 78.8 µM
TGI [37]: > 100 µM
GI50 [38]: > 100 µM
TGI [38]: > 100 µM
GI50 [39]: > 100 µM
TGI [39]: > 100 µM
GI50 [40]: > 100 µM
TGI [40]: > 100 µM
GI50 [41]: > 100 µM
TGI [41]: > 100 µM
GI50 [42]: > 100 µM
TGI [42]: > 100 µM
GI50 [43]: > 100 µM
TGI [43]: > 100 µM
GI50 [44]: > 100 µM
TGI [44]: > 100 µM
GI50 [45]: > 100 µM
TGI [45]: > 100 µM
GI50 [46]: > 100 µM
TGI [46]: > 100 µM
GI50 [47]: > 100 µM
TGI [47]: > 100 µM
GI50 [48]: > 100 µM
TGI [48]: > 100 µM
GI50 [49]: 57.2 µM
TGI [49]: > 100 µM
GI50 [57]: > 92.3 µM
TGI [57]: > 100 µM
GI50 [50]: > 100 µM
TGI [50]: > 100 µM
GI50 [51]: > 100 µM
TGI [51]: > 100 µM
GI50 [52]: 57.6 µM
TGI [52]: > 100 µM
GI50 [53]: > 100 µM
TGI [53]: > 100 µM
GI50 [54]: > 100 µM
TGI [54]: > 100 µM
GI50 [55]: > 91.9 µM
TGI [55]: > 100 µM
GI50 [56]: > 100 µM
TGI [56]: > 100 µM
